The source of these data is patent EP0097071A1, “Benzhydryl sulfinylacetamide derivatives and their therapeutical use” (LABORATOIRE L. LAFON Société anonyme dite:, priority 1982, dated 1983).

What is called solubility is the concentration that dissolves in the medium under given conditions. Lower therefore signals little dissolved substance.

In one data set the test system is SNC. The experiment in a line: Essential activity on the CNS (Tableau I and conclusions of the neuropsychopharmacological study). Type of data set: in vivo. As to conditions: in vivo. The text has this:
Dans le tableau I ci-après, on a consigné un certain nombre de composés selon la formule I de façon nullement limitative, en mentionnant l'activité essentielle sur le SNC.
Les composés de formule I agissent tous sur le SNC. Les produits des exemples 1-3 et 7-8 sont des agents stimulants, en revanche les produits des exemples 4-6 sont des agents sédatifs.

The test system of data set [1] is souris mâle. The data set is described as follows: Pentobarbital-induced sleep duration. It counts as in vivo. The text has this:
Les composés selon l'invention se distinguent du benzhydrylsulfinylacétamide (CRL 40476) précité par une différence d'action vis-à-vis du sommeil barbiturique. […]. Cette différence d'action qui est intéressante sur le plan thérapeutique est illustrée par le tableau IV

For data set [2] the following is noted: cited from earlier work.
Data set [3] deals with souris mâle. The experiment in a line: Toxicity, DL-0. Type of data set: in vivo. The settings on record: i.p. How it is done: (§1) On a résumé ci-après les résultats des essais pharmacologiques qui ont été entrepris avec les produits selon la présente addition. Dans ces essais, les produits de formule I à étudier ont été administrés par voie intrapéritonéale, en suspension dans une solution aqueuse de gomme arabique, sous un volume de 20 ml/kg chez la souris mâle et sous un volume de 5 ml/kg chez le rat mâle.
La toxicité a été étudiée chez la souris mâle. Les résultats relatifs à la DL-0 (dose minimale non mortelle) sont donnés dans le tableau II ci-après.

In the next data set the test system is souris mâles. The experiment in a line: Global behaviour and reactivities, mouse. As to conditions: souris. Type of data set: in vivo. As to the method:
as §1
(§2) Pour apprécier le comportement global et les réactivités, des lots de six animaux (souris mâles ou rats mâles) ont été observés avant administration de chaque produit, puis 15 min, 30 min, 1 h, 2 h, 3 h et 24 h après administration de chaque produit. Les résultats sont consignés dans le tableau III ci-après, […]

The subject of another data set is rats mâles. The experiment in a line: Global behaviour and reactivities, rat. It counts as in vivo. The settings on record: 64 mg/kg i.p. As to the method: as §1, §2
For data set [4], the system named is souris. The experiment in a line: Interaction with apomorphine, mouse. Type of data set: in vivo. As to the method: as §1
Des lots de 6 souris par dose reçoivent le CRL 40933 0,5 h avant l'injection sous-cutanée d'apomorphine administrée à la dose de 1 ou 16 mg/kg.

Another data set concerns rat. The data set is described as follows: Interaction with apomorphine, rat. As to conditions: apomorphine 0,5 mg/kg s.c., dose not stated. Type of data set: in vivo. How it is done:
as §1
Le CRL 40933 est administré à des lots de 6 rats 0,5 h avant l'injection sous-cutanée de 0,5 mg/kg d'apomorphine.

For the next data set, the system named is rats. The data set is described as follows: Interaction with amphetamine (stereotypies). Type of data set: in vivo. The settings on record: rat; amphétamine 2 mg/kg i.p.; doses used, not stated. As to the method: as §1
L'amphétamine (2 mg/kg)est injectée par voie intrapéritonéale à des lots de 6 rats, 30 min après l'administration de CRL 40933.

For data set [5], the system named is souris. The data set is described as follows: Interaction with reserpine. It counts as in vivo. As to conditions: 128 mg/kg i.p. How it is done: as §1
Quatre heures après l'injection intrapéritonéale de 2,5 mg/kg de réserpine, des lots de 6 souris reçoivent le CRL 40933.

The subject of data set [6] is souris. The experiment in a line: Interaction with oxotremorine. Type of data set: in vivo. How it is done: as §1
Le CRL 40933 est administré à des lots de 6 souris 0,5 h avant l'injection intrapéritonéale de 0,5 mg/kg d'oxotrémorine.

The subject of data set [7] is souris. The experiment in a line: Four plates test. It counts as in vivo. The settings on record: 0,5 h after administration, dose not stated. As to the method: as §1
(§3) Les essais sont effectués sur des lots de 10 souris (par dose) 0,5 h après l'administration du CRL 40933.

Data set [8] concerns souris. The experiment in a line: Traction test. Type of data set: in vivo. The settings on record: 0,5 h after administration, dose not stated. As to the method:
as §1, §3

For data set [9], the system named is souris. The experiment in a line: Electroshock. It counts as in vivo. As to conditions: dose not stated. As to the method:
as §1, §3

For data set [10], the system named is souris. The data set is described as follows: Spontaneous motility (actimeter). It counts as in vivo. As to conditions: 32 mg/kg et 128 mg/kg i.p. How it is done: as §1
Une demi-heure, après avoir reçu le CRL 40933, les souris (6 par dose, 12 témoins) sont placées en actimètre où leur motilité est enregistrée pendant 30 min.

For data set [11], the system named is souris. The data set is described as follows: Intergroup aggressiveness. Type of data set: in vivo. The settings on record: dose not stated. As to the method:
as §1
Après avoir séjourné pendant 3 semaines dans chacune des moitiés d'une cage séparées par une cloison opaque, des groupes de 3 souris reçoivent le CRL 40933. 30 min plus tard, les deux groupes d'une même cage sont réunis par retrait de la cloison et on note le nombre de combats qui surviennent en 10 min.

Data set [12] deals with souris. The data set is described as follows: Motility reduced by habituation to the enclosure. Type of data set: in vivo. As to conditions: 8 mg/kg, 32 mg/kg et surtout 128 mg/kg i.p. How it is done:
as §1
Après 18 h de séjour dans les actimètres, les souris (6 par dose, 12 témoins) reçoivent le CRL 40933. Elles sont aussitôt replacées dans leurs enceintes respectives et, 30 min plus tard, on enregistre leur motilité pendant 30 min.

Data set [13] concerns souris. The experiment in a line: Motility reduced by hypoxic aggression (acute hypobaric anoxia). It counts as in vivo. As to conditions: 128 mg/kg i.p. As to the method: as §1
Une demi-heure après avoir reçu le CRL 40933, les souris (10 par dose, 20 témoins) sont soumises à une anoxie hypobare aiguë [dépression de 600 mm Hg (soit environ 8 x 10^4 pascals) en 90 s, puis détente de 45 s], puis elles sont placées en actimètre où leur motilité est enregistrée pendant 10 min.

The subject of data set [14] is souris. The data set is described as follows: Asphyxic anoxia (gallamine triethiodide). Type of data set: in vivo. As to conditions: dose not stated. How it is done:
as §1
Des lots de 10 souris par dose reçoivent le CRL 40933 30 min avant l'administration intrapéritonéale de 32 mg/kg de triiodoéthylate de gallamine.

For data set [15], the system named is souris. The experiment in a line: Interaction with barbital (sleep). Type of data set: in vivo. How it is done:
as §1
Une demi-heure après l'administration de CRL 40933, des lots de 10 souris reçoivent une injection intrapéritonéale de 220 mg/kg de barbital.

The subject of data set [16] is souris. The experiment in a line: Behavioural despair (forced immersion). The settings on record: 32 mg/kg et 128 mg/kg i.p. Type of data set: in vivo. How it is done:
as §1
Une demi-heure après avoir reçu le CRL 40933, des lots de 10 souris par dose sont placés dans un espace restreint rempli d'eau sur une hauteur de 6 cm; on note la durée d'immobilité entre la 2e et la 6e minute suivant l'immersion.

Each structure is given as a SMILES string.

On to `NC(=O)C[S+]([O-])C(c1ccccc1)c1ccccc1` (centres unmarked) [CRL 40476, benzhydrylsulfinylacétamide, reference compound], for which, in the data set on SNC, the “Activité sur le SNC” value is on record as “stimulant”. For the same molecule, the “Action sur la durée du sommeil induit par le pentobarbital (50 mg/kg i.p.) effet” value in the data set on souris mâle [1] (dose de 8 à 256 mg/kg i.p., 0,5 h before pentobarbital) is “(b) (pas de modification significative de la durée du sommeil.)”. The “durée du sommeil barbiturique induit par le pentobarbital” value in the data set with souris mâle [1] (pentobarbital 50 mg/kg i.p. 0,5 h after i.p. test product, dose not stated) is given as “ne modifie pas”. In [2] (in vivo), the “excitation avec hyperréactivité” value was “présence” and the “potentialisation des effets de l'apomorphine et de l'amphétamine” value is on record as “absence”. Besides, in [2] (sauf à fortes doses), the stéréotypies result was “absence”.

`CNC(=O)C[S+]([O-])C(c1ccccc1)c1ccccc1` (centres unmarked) [Exemple 1, N-méthyl-benzhydrylsulfinylacétamide]: in the data set on SNC, the “Activité sur le SNC” value is given as “stimulant” and the “conclusion of the neuropsychopharmacological study: main type of CNS effect” value is recorded as “composante excitante”. Also, the “Action sur la durée du sommeil induit par le pentobarbital (50 mg/kg i.p.) effet” value with souris mâle [1] (dose 128 mg/kg i.p., 0,5 h before pentobarbital) is given as “(a)”. The DL-O entry with souris mâle [3] is “supérieure à 256 mg/kg”. Moreover, the “Observations (comportement global et réactivités)” value (from here on “Observations”) in the data set with souris mâles (64 mg/kg i.p.) was “excitation”. In the data set on souris mâles (128 mg/kg i.p.), the “Observations” value was “excitation - hypothermie (-1,5°C) pendant 0,5 h” and the hypothermie is -1,5 °C. In the data set with souris mâles (256 mg/kg i.p.), the “Observations” value is given as “dyspnée, excitation, démarche titu-bante” and the mortalité entry was “pas de mortalité”. In the data set with rats mâles, the “Observations” value is “mydriase pendant 3 h”. In addition, in the data set with souris [4] (128 mg/kg i.p.), the “hypothermie induite par l'apomorphine” value is listed as “ne s'oppose pas” and the “own effect on temperature” value was “hypothermisant”. Moreover, the “comportement de verticalisation et stéréotypies (apomorphine)” value in the data set on souris [4] (dose not stated) is listed as “ne modifie pas”. In addition, the “stéréotypies induites par l'apomorphine” value with rat is on record as “laisse inchangées”. For the same molecule, in the data set on rats, the “stéréotypies amphétaminiques” value is recorded as “ne modifie pratiquement pas”. In addition, in the data set with souris [5], the “hypothermie induite par la réserpine” value is recorded as “antagonise” and the “ptôsis réserpinique” value is “sans modifier”. In the data set on souris [6] (8 mg/kg à 128 mg/kg i.p.), the “action hypothermisante de l'oxotrémorine” value is on record as “s'oppose modérément”. For the same molecule, in the data set on souris [6] (dose not stated), the “signes de stimulation cholinergique périphérique dus à l'oxotrémorine” value was “laisse pratiquement inchangés” and the “tremblements induits par l'oxotrémorine” value is given as “ne modifie pas”. For the same molecule, the “nombre de passages punis” value in the data set with souris [7] is reported as “n'entraîne pas d'augmentation”. Moreover, in the data set on souris [8], the “déficit moteur (traction)” value is given as “ne provoque pas d'incapacité motrice majeure”. The “effets convulsivants de l'électrochoc” value in the data set with souris [9] is reported as “ne s'oppose pas”. The “motilité spontanée” value in the data set on souris [10] was “augmentation modérée”. For the same molecule, the “agressivité intergroupes (nombre de combats)” value in the data set with souris [11] is “ne modifie pas nettement”. The “activité motrice chez la souris habituée à son enceinte” value with souris [12] was “reprise d'activité motrice”. Besides, the “récupération motrice après séjour bref dans une enceinte à pression réduite” value with souris [13] is “amélioration modérée (mais non significative)”. In the data set with souris [14], the “délai d'apparition des convulsions et de la mort consécutives à une anoxie asphyxique” value is “ne modifie pas”. Further, in the data set with souris [15] (32 mg/kg i.p.), the “durée du sommeil barbiturique” value is listed as “n'entraîne pas de modifications sensibles” and the “nombre de souris endormies” value is on record as “diminution nette”. Also, the “durée du sommeil barbiturique” value in the data set with souris [15] (128 mg/kg i.p.) is on record as “diminue nettement”. For the same molecule, the “durée d'immobilité de la souris placée en immersion forcée” value with souris [16] is “diminue nettement”. Also, in the data set “Solubility”, the “solubilité dans l'éther et l'acétate d'éthyle” value was “insoluble” and the “solubilité dans le méthanol, l'éthanol et l'acétoné” value is listed as “soluble”. The solubility in “Solubility” (water) was < 1000 µg/mL.
